Experimental data published in ChEMBL document CHEMBL1955862, “Novel N'-benzylidene benzofuran-3-carbohydrazide derivatives as antitubercular and antifungal agents” (2012).
Converted amounts (≈) assume the structure as drawn.

What was measured:
[1] = tested on: Mycobacterium tuberculosis; experiment: Antituberculosis activity against Mycobacterium tuberculosis H37Rv by REMA method; type: functional
[2] = tested on: Candida albicans; experiment: Antifungal activity against Candida albicans; type: functional

Question: Which MIC [1] does the source give for `O=C(N/N=C/c1ccccc1)c1coc2ccccc12` here?
Answer: The MIC was 2 µg/mL (≈ 7.57 µM).

Question: And the MIC [2]?
Answer: The MIC was > 250 µg/mL.

Question: How did the MIC [1] turn out when `COc1ccc(/C=N/NC(=O)c2coc3ccccc23)c(OC)c1` was run?
Answer: The MIC was 128 µg/mL (≈ 395 µM).

Question: And the MIC [2]?
Answer: Its MIC is > 250 µg/mL.

Question: Which MIC [1] does the source give for `O=C(N/N=C/c1ccc(O)cc1)c1coc2ccccc12` here?
Answer: The MIC was 64 µg/mL (≈ 228 µM).

Question: What about the MIC [2] of the same compound?
Answer: The MIC was > 250 µg/mL.

Question: For `O=C(N/N=C/c1ccccc1O)c1coc2ccccc12`, which MIC [1] is on record?
Answer: The MIC was 64 µg/mL (≈ 228 µM).

Question: What about the MIC [2] of the same compound?
Answer: Its MIC is > 250 µg/mL.

Question: What does the source list for `O=C(N/N=C/c1ccc(Cl)cc1)c1coc2ccccc12`?
Answer: MIC [1]: 128 µg/mL (≈ 428 µM); MIC [2]: > 250 µg/mL

Question: How did the MIC [1] turn out when `Cc1ccc(/C=N/NC(=O)c2coc3ccccc23)cc1` was run?
Answer: Its MIC is 128 µg/mL (≈ 460 µM).

Question: What about the MIC [2] of the same compound?
Answer: Its MIC is > 250 µg/mL.

Question: For `O=C(N/N=C/c1ccc([N+](=O)[O-])cc1)c1coc2ccccc12`, which MIC [1] is on record?
Answer: Its MIC is 128 µg/mL (≈ 414 µM).

Question: And the MIC [2]?
Answer: Its MIC is > 250 µg/mL.

Question: For `O=C(N/N=C/c1cc(Cl)cc(Cl)c1O)c1coc2ccccc12`, which MIC [1] is on record?
Answer: Its MIC is 128 µg/mL (≈ 367 µM).

Question: And the MIC [2]?
Answer: The MIC was 31.2 µg/mL (≈ 89.5 µM).

Question: `O=C(N/N=C/c1cccc2ccccc12)c1coc2ccccc12` was tested. Which MIC [1] did it give?
Answer: Its MIC is 128 µg/mL (≈ 407 µM).

Question: And the MIC [2]?
Answer: The MIC was 125 µg/mL (≈ 398 µM).

Question: `O=C(N/N=C/c1c(Cl)cccc1Cl)c1coc2ccccc12` was tested. Which MIC [1] did it give?
Answer: The MIC was 128 µg/mL (≈ 384 µM).

Question: And the MIC [2]?
Answer: Its MIC is > 250 µg/mL.

Question: What does the source list for `O=C(N/N=C/c1ccccc1)c1coc2c(Cl)cc(Cl)cc12`?
Answer: MIC [1]: 2 µg/mL (≈ 6 µM); MIC [2]: > 250 µg/mL

Question: Which MIC [1] does the source give for `COc1ccc(/C=N/NC(=O)c2coc3c(Cl)cc(Cl)cc23)c(OC)c1` here?
Answer: Its MIC is 64 µg/mL (≈ 163 µM).

Question: And the MIC [2]?
Answer: Its MIC is > 250 µg/mL.

Question: For `O=C(N/N=C/c1ccc(O)cc1)c1coc2c(Cl)cc(Cl)cc12`, which MIC [1] is on record?
Answer: The MIC was 128 µg/mL (≈ 367 µM).

Question: What about the MIC [2] of the same compound?
Answer: The MIC was > 250 µg/mL.

Question: Which results are given for `O=C(N/N=C/c1ccccc1O)c1coc2c(Cl)cc(Cl)cc12`?
Answer: MIC [1]: 32 µg/mL (≈ 91.6 µM); MIC [2]: > 250 µg/mL

Question: With `O=C(N/N=C/c1ccc(Cl)cc1)c1coc2c(Cl)cc(Cl)cc12` as the compound, how does the MIC [1] read?
Answer: The MIC was 128 µg/mL (≈ 348 µM).

Question: What about the MIC [2] of the same compound?
Answer: The MIC was > 250 µg/mL.

Question: What does the source list for `Cc1ccc(/C=N/NC(=O)c2coc3c(Cl)cc(Cl)cc23)cc1`?
Answer: MIC [1]: 128 µg/mL (≈ 369 µM); MIC [2]: < 15.6 µg/mL

Question: Which MIC [1] does the source give for `O=C(N/N=C/c1ccc([N+](=O)[O-])cc1)c1coc2c(Cl)cc(Cl)cc12` here?
Answer: Its MIC is 128 µg/mL (≈ 338 µM).

Question: And the MIC [2]?
Answer: Its MIC is 125 µg/mL (≈ 331 µM).

Question: How did the MIC [1] turn out when `O=C(N/N=C/c1cc(Cl)cc(Cl)c1O)c1coc2c(Cl)cc(Cl)cc12` was run?
Answer: The MIC was 128 µg/mL (≈ 306 µM).

Question: And the MIC [2]?
Answer: The MIC was 250 µg/mL (≈ 598 µM).

Question: `O=C(N/N=C/c1cccc2ccccc12)c1coc2c(Cl)cc(Cl)cc12` was tested. Which MIC [1] did it give?
Answer: The MIC was 128 µg/mL (≈ 334 µM).

Question: And the MIC [2]?
Answer: Its MIC is < 15.6 µg/mL.

Question: What does the source list for `O=C(N/N=C/c1c(Cl)cccc1Cl)c1coc2c(Cl)cc(Cl)cc12`?
Answer: MIC [1]: 128 µg/mL (≈ 318 µM); MIC [2]: 62.5 µg/mL (≈ 155 µM)

Question: For `NNC(=O)c1ccncc1` [ISONIAZID], which MIC [1] is on record?
Answer: The MIC was 0.25 µg/mL (≈ 1.82 µM).
